The test system of data set [1] is mice that were genetically altered to present symptoms of Alzheimer's disease (AD). Description: Modified Morris water maze in AD mice. As to conditions: AD mice aged 13 months. Format: in vivo. The protocol:
Another group, the control group, of 10 mice that were genetically altered to present symptoms of AD were fed a Control Diet, a diet of normal solid food and water, for 30 days.
The pool used was a pool of water in a circular metal tank (150 cm in diameter and 50 cm in depth) having a water height of 30 cm and a water temperature that was maintained at ˜22° C. The pool was placed in a moderately lit area and surrounded by a black curtain. An acrylic platform (15 cm in diameter) was placed 2 cm below the surface of the water in the middle of one quadrant of the pool, equidistant from the center and the edge of the pool. Outside the pool, a cue was placed so as to be visible to a mouse in the maze, allowing a mouse to use it as a landmark for spatial orientation. The cue remained unchanged throughout the test period.
On the first day of the training and testing period, the water in the pool was transparent, such that the platform was visible. Each mouse was trained to swim towards the platform and to stand on the platform so as not to be submerged in the pool. […] The amount of time the mouse took to find the platform, referred to as “escape latency,” was recorded for each trial.
On the second day of the training and testing period, a small quantity of milk was added to the water in the pool, such that the pool was opaque and the platform was no longer visible. […]

Data set [2] has as its system Sprague-Dawley rats. Description: Novel object recognition test in rats. Format: in vivo. The protocol:
In this example, the effect of magnesium supplementation on recognition memory was tested. Three groups of rats were used in these experiments: 1) young rats (three months old); aging rats (12-14 months old), and; 3) magnesium-treated aging rats (12-14 months old, diet supplemented with 6 mg/kg MgCl2 from 8 months of age). We used experimentally naive, female, Sprague-Dawley young […], aging (12-14 month old) and […] rats (Charles River) at the beginning of the behavior experiments. They were housed two per cage with continuous access to food and water under a 12:12 light-dark cycle, with light onset at 8:00 a.m. […] All experiments involving animals were approved by the Massachusetts Institute of Technology's and Tsinghua University Committees on Animal Care.
The three groups of rats were tested for recognition memory using an object recognition test with a single exposure to the object during training. The task is based on the natural tendency of rodents to explore new objects and tests the animals' memory capacity for distinguishing novel versus familiar objects.
Briefly, the rats were first individually habituated to the personnel and then to open-field arena during 2 weeks. […] The retention intervals were 10 min and 24 hours. Objects were cleaned thoroughly between trials with 20% ethanol solution to ensure the absence of olfactory cues. The particular objects for a given trial were randomly determined, but each object was used for only one trial per rat. Memory of the familiar object is associated with increased exploration of the new object and an exploration index (% correct) is calculated as new object inspection time/30.
In this example, the effect of magnesium supplementation on memory consolidation was studied. […]
Briefly, the rats were first individually habituated to the personnel and then to open-field arena during 2 weeks. […] The particular objects for a given trial were randomly determined, but each object was used for only one trial per rat. […]

The nature of data set [3]: Magnesium absorption rate in rats (metabolic cages, urine and feces magnesium by ICP-AES). Conditions: higher dosage compositions; magnesium chloride in water, magnesium gluconate in skim milk or water comprising 5 weight percent lactose. The protocol: Fifty 3-month old, male Sprague Dawley (SD) rats were divided into five groups of ten rats. Rats of this age and older are considered adult. Each of the rats was placed in a separate metabolic cage equipped with urine- and feces-collecting wells. All of the rats were maintained in a temperature-controlled room (22° C. to 25° C.) with a dark period from 08:00 pm to 08:00 am daily. From day 1 through day 3, each rat was fed daily 15 g of magnesium-free food and de-ionized water. […] The medium was skim milk for Composition 1 and Group 1, milk prepared from powdered milk, by diluting the powdered milk with water to obtain a composition like that of skim milk, for Composition 2 and Group 2, 1% milk cream in water for Composition 3 and Group 3, water comprising 5 weight percent lactose for Composition 4 and Group 4, and water for the Control Composition and Control Group. […]
From day 4 through day 10, urine from each rat was collected daily. The collected urine from each rat was then pooled together and the total volume of the pooled urine from each rat was recorded. The pooled urine from each rat, in an amount of […], was analyzed for magnesium content using an inductively coupled plasma-atomic emission spectrometer (ICP-AES). […] The pooled feces from each rat, in an amount of 0.5 g, were analyzed for magnesium content using an ICP-AES. […]

Data set [4] relates to Sprague Dawley (SD) rats. Conditions: aging rats, 6 mg/kg MgCl2. As to the method:
Twenty 2-month old, male Sprague Dawley (SD) rats were housed in a temperature-controlled room (22° C. to 25° C.) with a dark period from 08:00 pm to 08:00 am daily. […] Over 7 days before the training and trial period began, each rat was handled and habituated to the maze and to Kellogg's Froot Loop cereal.
Each rat underwent a test of one trial, followed by an interval of 10-minutes, followed by another trial, and so on, for a total of 6 trials in one day. In each trial, each rat went through a sample run in the maze, followed by an interval of 15 seconds, followed by a choice run in the maze. In the sample run, the subject rat was forced to go to the left or to the right by the presence of a block, according to a pseudorandom sequence (with an equal number of left turns and right turns, and no more than two consecutive turns in the same direction). As a reward, Froot Loop cereal was available in the food well at the end of the run, regardless of the direction that was taken by virtue of the block. In the choice run, the block that had been present in the preceding sample run was removed, and the rat was allowed to choose to go to the left or to the right. As a reward, Froot Loop cereal was available in the food well at the end of the run, only when the rat had made a “correct choice” by choosing the direction opposite that taken in the preceding sample run. […]
On the first day (designated day 0) of the feeding of the two groups, as just described, each rat underwent a preliminary test of one trial, followed by an interval of 10 minutes, followed by another trial, and so on, for a total of 4 trials in one day. […] In this preliminary test, the choice accuracy level, or ratio of correct choices made, co, to the number of number of trials in the test, no, was determined for each rat. […]
Three groups of animals (young, aging, and magnesium-treated aging rats) were used. […] Spatial working memory was assessed using a T-maze non-matching-to-place task. […] Spatial working memory was first assessed on an elevated T-maze. […]

In data set [5] the test system is young (9-month old) and aged (25-month old) rats. As to conditions: food containing 2% magnesium oxide for 8 days, cited from earlier work.
For data set [6] the following is noted: diabetic patients, nearly 1 g of magnesium daily for 1 month; cited from earlier work.

With `CC12CC3CC(C)(C1)CC(N)(C3)C2` [memantine], the “reduction of the effects of AD on learning capacity, compared with aricept” value in data set [1] is “better at reducing the effects of AD on learning capacity than aricept”.

For the compound `[Cl-].[Cl-].[Mg+2]` [MgCl2, magnesium chloride], the “novel object exploration preference” value in data set [2] (aging rats (12-14 months old), 6 mg/kg MgCl2 from 8 months of age, single exposure, 10 minute retention interval (P<0.0001)) was “preferentially explored the novel object to the same extent as young rats”. For the same compound, the “ability to distinguish novel versus familiar objects” value in data set [2] (aging rats, 6 mg/kg MgCl2, single exposure, after 24 hours) is “lose there ability to distinguish novel versus familiar objects”. Besides, in data set [2] (aging rats, 6 mg/kg MgCl2, two training sessions, 24-hour retention interval), the “preference for the novel object” value is recorded as “retained a high level of preference”. The “magnesium absorption rate at relatively high magnesium dosage” value in data set [3] was “less desirable”. Besides, the “spatial working memory performance with increased delay” value in data set [4] (2 and 5 min delays (p<0.05)) is listed as “significantly enhanced the performance of the aging rats”. Further, the “percentage of correct choices during training” value in data set [4] (15 sec delay (p<0.05)) is “performed significantly better from their first trials”. For the same compound, the “asymptotic choice accuracy level” value in data set [4] (after 8 days of training) is 94%.

`[O]=[Mg]` [magnesium oxide]: the side-effect entry in data set [5] is “diarrhea and weight loss”. Moreover, in data set [5] (gain transient), the cognitive function entry is listed as “some sign of improvement of cognitive function”. Besides, in data set [6], the “increase of serum magnesium level” value is “about 10%” and the metabolic control entry was “only minor improvement in metabolic control”.

These data come from US20080249178A1, “MAGNESIUM COMPOSITIONS AND USES THEREOF FOR INCREASING LIFESPAN” (priority 2007, published 2008).
